Here are results for nine compounds from paper PMC7824769, “Identification of Small Molecules Blocking the Pseudomonas aeruginosa Type III Secretion System Protein PcrV” (Biomolecules, 2021).

In general, Kd refers to the concentration at which binding is half-saturated. Read a low Kd as a tighter complex. For orientation: viability means a read-out of living cells in per cent, often relative to untreated cells.

Series [1] deals with PcrV (Pseudomonas aeruginosa, UniProt G3XD49). Put plainly: SPR dose-response binding to immobilized PcrV (equilibrium analysis). The protocol: The SPR screening was performed using the ProteOn^TM XPR36 Protein Interaction Array System (Bio-Rad Laboratories Inc., Hercules, CA, USA) with ProteOn GLH sensor chip (Bio-Rad Laboratories Inc., Hercules, CA, USA), and the results were analyzed with the ProteOn Manager software^TM (Bio-Rad Laboratories Inc., Hercules, CA, USA), Excel 2016 (Microsoft Office), and GraphPad Prism 7.04. All SPR experiments were performed at 25 °C. The multichannel module of the ProteOn system was in the vertical position during protein immobilization. The proteins were attached to the surface of a GLH sensor chip via amine coupling chemistry. A buffer scouting was performed to elucidate the optimal binding conditions of PcrV to the GLH sensor chip. First, channels 1–4 on the chip surface were activated using a 1:1 mixture of 40 mM 1-ethyl-3-(3-dimethylaminopropyl)carbodiimide hydrochloride (EDAC) (Bio-Rad Laboratories Inc., Hercules, CA, USA) and 10 mM N-hydroxysulfosuccinimide (sulfo-NHS, Bio-Rad Laboratories Inc., Hercules, CA, USA) for 300 s at 30 µL/min. Next, the proteins PcrV (33,398.6 Da, 6.37 mg/mL) was diluted in 10 mM NaOAc (pH 4, 4.5, and 5) to 0.05 mg/mL. PcrV was immobilized in channel 1–3 for 540 s at 30 µL/min. Channel 4 was flushed with 10 mM NaOAc (pH 5) for 540 s at 30 µL/min. As deactivating agent, a 1:1 mixture of 1 M ethanolamine and milli-Q filtered water was used. The deactivating solution was injected over all four channels for 300 s at 30 µL/min. Phosphate buffered saline with Tween (PBST; 10 mM phosphate buffer pH 7.4, 140 mM NaCl, 2.7 mM KCl, and 0.05% Tween 20) was used as the running buffer. The final amount of immobilized protein was measured in resonance units (RU) relative to the signal of the baseline prior activation. […] Immobilization of PcrV diluted in sodium acetate of pH 4.5 in one channel and of pH 5 in one channel were used in the beginning of the screening procedure (for plate 1–26). Since no difference was found between the two pH values, the PcrV protein was diluted in sodium acetate at pH 5 only (in two channels) from plate 27 and the rest of the screen. The immobilization procedure for the screening was performed as described above with the addition that the control protein carbonic anhydrase isoenzyme II from bovine erythrocytes (CAII, Sigma-Aldrich, article number 2522) was immobilized in one channel that was activated and deactivated as described above. CAII (1 mg/mL in PBS) was deactivated when diluted in 10 mM sodium acetate (pH 4) to 0.05 mg/mL. Immobilization level of the deactivated CAII was 18,000 RU. Deactivated CAII was used as a control protein according to the recommendations by the ProteOn manufacturer (Bio-Rad Laboratories Inc., Hercules, CA, USA). As running buffer, we employed PBS (pH 7.4, 0.05% Tween 20).
First, the PcrV protein was immobilized in two channels as described above while keeping a blank channel which was activated and deactivated as described above. The multichannel module of the ProteOn system was in horizontal position during the small molecule interaction studies. They were serially diluted to (400,) 200, 100, 50, 25, 12.5, 6.25, and (3.125); or 100, 50, 25, and 12.5 µM; or 100, 66.7, 44.4, 29.6, 19.7, and 13.2 µM in PBST (0.05% Tween 20) with a total concentration of 5% DMSO in 96-well plates. The running buffer was PBST (0.05% Tween 20) containing 5% DMSO. The analytes were injected at a flowrate of 100 µL/min, contact time was 60 s, and dissociation time was 60–120 s. Solvent correction was performed continuously during the experiments to account for bulk response of DMSO. The data was then baseline-aligned, processed by channel referencing with the blank channel, and solvent-corrected. The equilibrium dissociation constant (KD) values were determined from equilibrium analysis in the ProteOn Manager software^TM. Solubility problems frequently hampered KD determination since the small molecules could not always be dissolved in concentrations high enough to reach a plateau. […]

Series [2] concerns J774 cells infected with P. aeruginosa strain PAK. Put plainly: cells. The format is cell-based, Pseudomonas aeruginosa. As to conditions: for viability at 25 µM / viability at 50 µM / viability at 100 µM / viability at 200 µM: Pseudomonas aeruginosa, uninfected control = 100%, infected control = 0%; for viability at 25 µM: J774, compound 25 µM, read-out: Viability Assay (% of Uninfected Control) 25 µM; for viability at 50 µM: J774, compound 50 µM, read-out: Viability Assay (% of Uninfected Control) 50 µM; for viability at 100 µM: J774, compound 100 µM, read-out: Viability Assay (% of Uninfected Control) 100 µM; for viability at 200 µM: J774, compound 200 µM; for Anti-virulence efficacy in the infection assay (in words): 25-200 µM. On the procedure:
(§1) The cell viability assay was performed essentially as described before. J774 cells were seeded in 96-well micro-titer plates (Nunc), 100 µL/well, to a final number of 50,000 cells/well in Dulbecco’s modified Eagle’s medium (DMEM) with glutamax (Merck) supplemented with 10% fetal calf serum (FCS) and 3 µg/mL gentamicin and incubated for 16-18 h. Overnight cultures of the P. aeruginosa strains PAK and PAKpcrV [10] were grown in Luria Broth (LB) on a rotary shaker at 220 rpm at 37 °C. Prior to infection, the bacteria were diluted 1:10 in DMEM + glutamax and incubated for 1 h at 37 °C (shaking). The J774 cells were washed once with PBS, then 30 µL of DMEM with glutamax and 10% FCS supplemented with the potential binders at concentrations of 50, 100, 200, and 400 µM were added to the wells in triplicates. The infection was initiated by adding 30 µL of the diluted bacterial solutions (where the OD600 had been diluted to 0.0008) to each well to initiate infection. This infection results in a final bacterial concentration of OD600 = 0.0004 and a multiplicities of infection (MOI) of approximately 8, with final concentrations of the compounds at 25, 50, 100, and 200 µM in 60 µL of DMEM + glutamax and 5% FCS. In the primary screening, the compounds were run at one concentration (100 µM) in duplicates. As an infection control, the wild-type strain PAK with 1% DMSO was added, and as a positive control, PAKpcrV with 1% DMSO was added into four wells each. After 3 h and 30 min, 10 µL of UptiBlue Viable Cell Counting Kit (Interchime, France) was added to all wells. The infection was followed under the light microscope and the fluorescence (excitation 535 nm and emission 595 nm) was measured at 4, 5, and 6 h in a microplate reader (Synergy™ H4, Biotek). The results were calculated as percentage of living cells compared to uninfected control, where the uninfected control was set to 100% living cells and the infected control was set to 0% living cells. As a control, compounds were added to uninfected cells in a parallel experiment and viability was calculated as above to screen for cell toxicity. A compound was considered toxic if the viability was <80% of the uninfected control after 6 h of incubation and if a visual change of cell morphology was observed by microscopy. Z’ was calculated for each plate to ensure good quality throughout the screening. Only results from plates with a Z’ > 0.4 were counted. Standard deviation was calculated with Gaussian approximation when appropriate and shown as error bars in Figure 3C and Figure 4A.
The T3SS is important for P. aeruginosa infection of eukaryotic cells, and a T3SS activator mutant or a mutant lacking the T3SS tip protein PcrV are not able to infect eukaryotic cells. The macrophage cell line, J774, was infected with the wild-type P. aeruginosa strain PAK, and the potential PcrV binders were added to the wells at a final concentration of 100 µM to screen for inhibition of infection. The T3SS-mediated cytotoxic effect on the eukaryotic cells was measured by using a viability staining method (Uptiblue, Interchim), and the results were measured after 4, 5, and 6 h of infection. The pcrV-mutant (PAKpcrV), which is not able to infect macrophages due to deletion of the PcrV protein, was used as a control.

Series [3] relates to uninfected J774 cells. Description: Cell toxicity control: compounds added to uninfected J774 cells. It is filed as cell-based. As to conditions: 6 h incubation; for Toxicity towards eukaryotic cells, 200 µM: compound 200 µM. The protocol: as §1
Setting [4] is: KD ± standard error of KD (Table S1), single experiment, standard error from ProteOn Manager software.
Where [5] appears, read: SPR KD, equilibrium analysis, mean ± SD of three or more independent experiments, individual values where n < 3, 25 °C, PBST 5% DMSO.

Values joined by “and” are separate entries in the source; they are usually repeats but may differ in a detail not shown here. Identical values can stand only once.

Chain of PcrV (G3XD49 entry or part of it): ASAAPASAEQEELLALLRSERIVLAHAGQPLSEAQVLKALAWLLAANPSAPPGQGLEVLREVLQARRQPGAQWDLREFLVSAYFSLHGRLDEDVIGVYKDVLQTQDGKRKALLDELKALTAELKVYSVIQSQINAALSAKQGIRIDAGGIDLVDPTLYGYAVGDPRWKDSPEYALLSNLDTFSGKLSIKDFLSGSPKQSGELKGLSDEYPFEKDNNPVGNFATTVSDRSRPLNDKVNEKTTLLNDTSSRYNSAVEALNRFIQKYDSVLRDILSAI

For the compound `O=C(O)CCCOc1ccc(Cl)cc1Cl` [Compound 1], the affinity in series [1] (setting [4]), expressed as Kd, was 124 ± 53 µM. In series [1] (setting [5]), the Kd was < 127 µM and 95 µM. Also, in series [2], the viability at 25 µM was found to be 14%, the viability at 50 µM is 12%, the viability at 100 µM stood at 21% and the viability at 200 µM came to 16%. Moreover, the “Toxicity towards eukaryotic cells, 200 µM” value in series [3] is given as “b (The compound is toxic^e towards eukaryotic cells, which might affect the results negatively)”.

As to `Cc1c(Br)ccc(OCCCC(=O)N2CCC(C(=O)O)CC2)c1C` [Compound 23], in series [1] (setting [4]), the Kd was determined as 94.1 ± 31 µM. Also, in series [1] (setting [5]), the Kd was 94 µM and 103 µM. Besides, in series [2], the viability at 25 µM is 17%, the viability at 50 µM was 18%, the viability at 100 µM was found to be 20% and the viability at 200 µM worked out at 9%. The “Toxicity towards eukaryotic cells, 200 µM” value in series [3] is “b (The compound is toxic^e towards eukaryotic cells, which might affect the results negatively)”.

In turn, `O=C(O)CCCOc1cc(Cl)ccc1Oc1ccc(Cl)cc1Cl` [Compound 17] had a Kd in series [1] (setting [5]) of 536 µM. Further, in series [2], the viability at 25 µM was 10%, the viability at 50 µM amounted to 3%, the viability at 100 µM is 7% and the viability at 200 µM was -2%. Also, in series [3], the “Toxicity towards eukaryotic cells, 200 µM” value was “b (The compound is toxic^e towards eukaryotic cells, which might affect the results negatively)”.

Take `Cc1c(Br)ccc(OCCCC(=O)NS(=O)(=O)c2ccccc2)c1C` [Compound 27]: the Kd in series [1] (setting [4]) was determined as 116 ± 18 µM. This compound gave a Kd in series [1] (setting [5]) of 118 ± 62 µM. For the same compound, in series [2], the viability at 25 µM turned out to be 13%, the viability at 50 µM was determined as 15%, the viability at 100 µM is 25% and the viability at 200 µM was -6%. The “Toxicity towards eukaryotic cells, 200 µM” value in series [3] is listed as “b (The compound is toxic^e towards eukaryotic cells, which might affect the results negatively)”.

In series [1] (setting [4]), `Cc1c(Br)ccc(OCCCc2ccccc2C(=O)O)c1C` [Compound 30] registered a Kd of 149 ± 27 µM. In series [1] (setting [5]), this compound had a Kd of 113 ± 31 µM. Moreover, in series [2], the viability at 25 µM was 16%, the viability at 50 µM was 25%, the viability at 100 µM was found to be 21% and the viability at 200 µM was -16%. In addition, in series [3], the “Toxicity towards eukaryotic cells, 200 µM” value is recorded as “b (The compound is toxic^e towards eukaryotic cells, which might affect the results negatively)”.

For the compound `Cc1c(Br)ccc(OCCCC(=O)N2CCCC(C(=O)O)C2)c1C` (stereo not shown) [Compound 20], the Kd in series [1] (setting [4]) turned out to be 71.2 ± 23 µM. Besides, the Kd in series [1] (setting [5]) was 71 µM and 131 µM. For the same compound, in series [2], the “Anti-virulence efficacy in the infection assay (in words)” value is listed as “no or modest anti-virulence activity without clear dose-response”, the viability at 25 µM is 15%, the viability at 50 µM was 15% and the viability at 100 µM was 15%. In addition, the viability at 200 µM in series [2] is 9%.

With `Cc1cc(Br)cc(C)c1OCCCC(=O)O` [Compound 13], binding in series [1] (setting [5]) was put at a Kd of 431 ± 110 µM. Also, the “Binding to PcrV in SPR (in words)” value in series [1] (dose-response SPR) was “reduced binding”. Further, in series [2], the viability at 25 µM is 19%, the viability at 50 µM was determined as 18%, the viability at 100 µM stood at 21% and the viability at 200 µM turned out to be 20%.

On to `Cc1c(Br)ccc(OCCCCO)c1C` [Compound 28], for which the Kd in series [1] (setting [5]) was 127 µM and 351 µM. Also, the “Toxicity towards eukaryotic cells, 25 µM” value in series [3] (compound 25 µM) is “Toxic ^e (<80% viability compared to the DMSO control)”. In addition, the “Toxicity towards eukaryotic cells, 50 µM” value in series [3] (compound 50 µM) is given as “Toxic ^e (<80% viability compared to the DMSO control)”. In addition, the “Toxicity towards eukaryotic cells, 100 µM” value in series [3] (compound 100 µM) was “Toxic ^e (<80% viability compared to the DMSO control)”. Further, the “Toxicity towards eukaryotic cells, 200 µM” value in series [3] is given as “Toxic ^e (<80% viability compared to the DMSO control)”.

`Cc1c(Br)ccc(OCCCCC(=O)O)c1C` [Compound 31]: the Kd in series [1] (setting [5]) was 120 µM and 138 µM. In series [2], the “Anti-virulence efficacy in the infection assay (in words)” value is reported as “no or modest anti-virulence activity without clear dose-response”, the viability at 25 µM amounted to 11%, the viability at 50 µM was found to be 17% and the viability at 100 µM worked out at 18%. Also, in series [2], the viability at 200 µM was found to be 17%.
